Measured values reported in patent US4234579A, “Penicillanic acid 1,1-dioxides as β-lactamase inhibitors” (priority 1979, dated 1980).
Converted amounts (≈) assume the structure as drawn. Read-outs that look alike come from different tables or passages of the source. Values belong to the molecule of their own block, whether it stands above or below them.

Legend:
Staphylococcus aureus [1] = assay: Mode MIC of antibiotic and PA 1,1-Dioxide alone and in combination; assay type: cell-based; details: for MIC: Staphylococcus aureus, 18 h, read-out: Mode MIC alone; for Mode MIC's of carbenicillin and PA 1,1-Dioxide in combination: carbenicillin + PA 1,1-Dioxide in combination
Excerpt: (§1) As indicated hereinbefore, the compounds of formula I, wherein R^1 is hydrogen or an ester-forming residue readily hydrolyzable in vivo, are antibacterial agents of medium potency. […] The procedure which is followed is the one recommended by the International Collaborative Study on Antibiotic Sensitivity Testing (Ericcson and Sherris, Acta. Pathologica et Microbiologia Scandinav, Supp. 217, Section B: 64-68 [1971]), and employs brain heart infusion (BHI) agar and the inocula replicating device. Overnight growth tubes are diluted 100 fold for use as the standard inoculum (20,000-10,000 cells in approximately 0.002 ml. are placed on the agar surface; 20 ml. of BHI agar/dish). Twelve 2 fold dilutions of the test compound are employed, with initial concentration of the test drug being 200 mcg./ml. Single colonies are disregarded when reading plates after 18 hrs. at 37° C. The susceptibility (MIC) of the test organism is accepted as the lowest concentration of compound capable of producing complete inhibition of growth as judged by the naked eye.
(§2) The manner in which the said compounds of the formula I increase the effectiveness of a β-lactam antibiotic can be appreciated by reference to experiments in which the MIC of a given antibiotic alone, and a compound of the formula I wherein R^1 is hydrogen, alone, are measured. These MIC's are then compared with the MIC values obtained with a combination of the given antibiotic and the compound of the formula I wherein R^1 is hydrogen. […] The MIC values of combinations are measured using the method described by Barry and Sabath in "Manual of Clinical Microbiology", edited by Lenette, Spaulding and Truant, 2nd Edition, 1974, American Society for Microbiology.
(§3) From Table II, it can be seen that against 19 ampicillin-resistant strains of Staphylococcus aureus, the mode MIC of ampicillin, and of penicillanic acid 1,1-dioxide, is 200 mcg./ml. […] The other entries in Table II show enhancement of the antibacterial effectiveness of ampicillin against 26 ampicillin resistant strains of Haemophilus influenzae, 18 ampicillin resistant strains of Klebsiella pneumoniae, and 15 strains of the anerobe Bacteroides fragilis. Tables III, IV and V show enhancement of the antibacterial potency of benzylpenicillin (penicillin G) carbenicillin (α-carboxybenzylpenicillin) and cefazolin, respectively, against strains of S. aureus, H. influenzae, K. pneumoniae and Bacteroides fragilis.

Klebsiella pneumoniae [2] = assay: as above; assay type: cell-based; details: for MIC: Klebsiella pneumoniae, 18 h, read-out: Mode MIC alone; for Mode MIC's of carbenicillin and PA 1,1-Dioxide in combination: carbenicillin + PA 1,1-Dioxide in combination
Excerpt: as §1, §2, §3

Bacteroides fragilis = assay: as above; assay type: cell-based; details: for MIC: Bacteroides fragilis, 18 h, read-out: Mode MIC alone; for Mode MIC's of carbenicillin and PA 1,1-Dioxide in combination: carbenicillin + PA 1,1-Dioxide in combination
Excerpt: as §1, §2, §3

Haemophilus influenzae = assay: as above; assay type: cell-based; details: for MIC: Haemophilus influenzae, 18 h, alone; for Mode MIC's of carbenicillin and PA 1,1-Dioxide in combination: carbenicillin + PA 1,1-Dioxide in combination
Excerpt: as §1, §2, §3

microbial β-lactamases = assay: Inhibition of microbial β-lactamases; assay type: biochemical; details: result in words
Staphylococcus aureus [3] = assay: In vitro antibacterial activity (MIC), Table I; assay type: cell-based; details: BHI agar, 18 hrs. at 37° C.
Excerpt: as §1

Proteus mirabilis = assay: In vitro antibacterial activity (MIC), Table I; assay type: cell-based; details: BHI agar, 18 hrs. at 37° C.
Excerpt: as §1

Hemophilus influenzae = assay: In vitro antibacterial activity (MIC), Table I; assay type: cell-based; details: Haemophilus influenzae; BHI agar, 18 hrs. at 37° C.
Excerpt: as §1

Proteus morgani = assay: In vitro antibacterial activity (MIC), Table I; assay type: cell-based; details: BHI agar, 18 hrs. at 37° C.
Excerpt: as §1

Streptococcus faecalis = assay: In vitro antibacterial activity (MIC), Table I; assay type: cell-based; details: Enterococcus faecalis; BHI agar, 18 hrs. at 37° C.
Excerpt: as §1

Staphylococcus epidermis = assay: In vitro antibacterial activity (MIC), Table I; assay type: cell-based; details: BHI agar, 18 hrs. at 37° C.
Excerpt: as §1

Escherichia coli = assay: In vitro antibacterial activity (MIC), Table I; assay type: cell-based; details: BHI agar, 18 hrs. at 37° C.
Excerpt: as §1

Streptococcus pyogenes = assay: In vitro antibacterial activity (MIC), Table I; assay type: cell-based; details: BHI agar, 18 hrs. at 37° C.
Excerpt: as §1

Salmonella typhimurium = assay: In vitro antibacterial activity (MIC), Table I; assay type: cell-based; details: Salmonella enterica, BHI agar, 18 hrs. at 37° C.
Excerpt: as §1

Enterobacter aerogenes = assay: In vitro antibacterial activity (MIC), Table I; assay type: cell-based; details: Klebsiella aerogenes; BHI agar, 18 hrs. at 37° C.
Excerpt: as §1

Providencia = assay: In vitro antibacterial activity (MIC), Table I; assay type: cell-based; details: BHI agar, 18 hrs. at 37° C.
Excerpt: as §1

Pseudomonas aeruginosa = assay: In vitro antibacterial activity (MIC), Table I; assay type: cell-based; details: BHI agar, 18 hrs. at 37° C.
Excerpt: as §1

Enterobacter clocae = assay: In vitro antibacterial activity (MIC), Table I; assay type: cell-based; details: BHI agar, 18 hrs. at 37° C.
Excerpt: as §1

Citrobacter freundii = assay: In vitro antibacterial activity (MIC), Table I; assay type: cell-based; details: BHI agar, 18 hrs. at 37° C.
Excerpt: as §1

Serratia marcescens = assay: In vitro antibacterial activity (MIC), Table I; assay type: cell-based; details: BHI agar, 18 hrs. at 37° C.
Excerpt: as §1

Neisseria gonorrhoeae = assay: In vitro antibacterial activity (MIC), Table I; assay type: cell-based; details: BHI agar, 18 hrs. at 37° C.
Excerpt: as §1

Pseudomonas putida = assay: In vitro antibacterial activity (MIC), Table I; assay type: cell-based; details: BHI agar, 18 hrs. at 37° C.
Excerpt: as §1

Pasteurella multocida = assay: In vitro antibacterial activity (MIC), Table I; assay type: cell-based; details: BHI agar, 18 hrs. at 37° C.
Excerpt: as §1

Klebsiella pneumoniae [4] = assay: In vitro antibacterial activity (MIC), Table I; assay type: cell-based; details: BHI agar, 18 hrs. at 37° C.
Excerpt: as §1

[5] = tested on: many microorganisms, particularly those which produce a β-lactamase; assay: Enhancement of antibacterial effectiveness of β-lactam antibiotics (combination MIC); assay type: cell-based; details: result in words; combination with β-lactam antibiotic
Protocol: as §2

MIC (Staphylococcus aureus [1]; Table IV, 20 strains, alone): 12.5 µg/mL
Mode MIC's of carbenicillin and PA 1,1-Dioxide in combination (Staphylococcus aureus [1]; Table IV, 20 strains): 6.25 µg/mL
MIC (Klebsiella pneumoniae [2]; Table IV, 16 strains, alone): > 400 µg/mL
Mode MIC's of carbenicillin and PA 1,1-Dioxide in combination (Klebsiella pneumoniae [2]; Table IV, 16 strains): 50 µg/mL
MIC (Bacteroides fragilis; Table IV, 15 strains, alone): 50 µg/mL
Mode MIC's of carbenicillin and PA 1,1-Dioxide in combination (Bacteroides fragilis; Table IV, 15 strains): 3.12 µg/mL
MIC (Haemophilus influenzae; Table IV, 25 strains, read-out: Mode MIC alone): 6.25 µg/mL
Mode MIC's of carbenicillin and PA 1,1-Dioxide in combination (Haemophilus influenzae; Table IV, 25 strains): 0.39 µg/mL
SMILES: CC1(C)S[C@@H]2[C@H](NC(=O)C(C(=O)O)c3ccccc3)C(=O)N2[C@H]1C(=O)O (stereo partly drawn) [carbenicillin, α-carboxybenzylpenicillin, reference compound]

SMILES: CC1(C)[C@H](C(=O)O)N2C(=O)C[C@H]2S1(=O)=O [Penicillanic Acid 1,1-Dioxide]
MIC (Staphylococcus aureus [1]): 200 µg/mL
Mode MIC's of ampicillin and PA 1,1-Dioxide in combination (Staphylococcus aureus [1]; Table II, 19 ampicillin-resistant strains, ampicillin + PA 1,1-Dioxide in combination): 3.12 µg/mL
Mode MIC alone (Staphylococcus aureus [1]; Table III, 20 strains, alone): 200 µg/mL
Mode MIC's of penicillin G and PA 1,1-Dioxide in combination (Staphylococcus aureus [1]; Table III, 20 strains, penicillin G + PA 1,1-Dioxide in combination): 6.25 µg/mL
Mode MIC alone (Staphylococcus aureus [1]; Table IV, 20 strains, alone): 200 µg/mL
Mode MIC's of carbenicillin and PA 1,1-Dioxide in combination (Staphylococcus aureus [1]; Table IV, 20 strains): 6.25 µg/mL
Mode MIC's of Cefazolin and PA 1,1-Dioxide in Combination (Staphylococcus aureus [1]; Table V, 20 strains, Cefazolin + PA 1,1-Dioxide in combination): 25 µg/mL
Mode MIC alone (Staphylococcus aureus [1]; Table V, 20 strains, alone): 200 µg/mL
MIC (Klebsiella pneumoniae [2]): 50 µg/mL
Mode MIC's of ampicillin and PA 1,1-Dioxide in combination (Klebsiella pneumoniae [2]; Table II, 18 ampicillin resistant strains, ampicillin + PA 1,1-Dioxide in combination): 6.25 µg/mL
Mode MIC alone (Klebsiella pneumoniae [2]; Table III, 24 strains, alone): 50 µg/mL
Mode MIC's of penicillin G and PA 1,1-Dioxide in combination (Klebsiella pneumoniae [2]; Table III, 24 strains, penicillin G + PA 1,1-Dioxide in combination): 12.5 µg/mL
Mode MIC alone (Klebsiella pneumoniae [2]; Table IV, 16 strains, alone): 50 µg/mL
Mode MIC's of carbenicillin and PA 1,1-Dioxide in combination (Klebsiella pneumoniae [2]; Table IV, 16 strains): 6.25 µg/mL
Mode MIC's of Cefazolin and PA 1,1-Dioxide in Combination (Klebsiella pneumoniae [2]; Table V, 3 strains, Cefazolin + PA 1,1-Dioxide in combination): 25 µg/mL
Mode MIC alone (Klebsiella pneumoniae [2]; Table V, 3 strains, alone): 50 µg/mL
MIC (Bacteroides fragilis): 50 µg/mL
Mode MIC's of ampicillin and PA 1,1-Dioxide in combination (Bacteroides fragilis; Table II, 15 strains, ampicillin + PA 1,1-Dioxide in combination): 0.78 µg/mL
Mode MIC alone (Bacteroides fragilis; Table III, 15 strains, alone): 50 µg/mL
Mode MIC's of penicillin G and PA 1,1-Dioxide in combination (Bacteroides fragilis; Table III, 15 strains, penicillin G + PA 1,1-Dioxide in combination): 0.39 µg/mL
Mode MIC alone (Bacteroides fragilis; Table IV, 15 strains, alone): 50 µg/mL
Mode MIC's of carbenicillin and PA 1,1-Dioxide in combination (Bacteroides fragilis; Table IV, 15 strains): 0.78 µg/mL
Mode MIC's of Cefazolin and PA 1,1-Dioxide in Combination (Bacteroides fragilis; Table V, 15 strains, Cefazolin + PA 1,1-Dioxide in combination): 6.25 µg/mL
Mode MIC alone (Bacteroides fragilis; Table V, 15 strains, alone): 50 µg/mL
MIC (Haemophilus influenzae; read-out: Mode MIC alone, Table II, 26 ampicillin resistant strains): > 200 µg/mL
MIC (Haemophilus influenzae; read-out: Mode MIC alone, Table III, 25 strains): 100 µg/mL
MIC (Haemophilus influenzae; read-out: Mode MIC alone, Table IV, 25 strains): 100 µg/mL
MIC (Haemophilus influenzae; read-out: Mode MIC alone, Table V, 25 strains): 200 µg/mL
Mode MIC's of ampicillin and PA 1,1-Dioxide in combination (Haemophilus influenzae; Table II, 26 ampicillin resistant strains, ampicillin + PA 1,1-Dioxide in combination): 3.12 µg/mL
Mode MIC's of penicillin G and PA 1,1-Dioxide in combination (Haemophilus influenzae; Table III, 25 strains, penicillin G + PA 1,1-Dioxide in combination): 1.56 µg/mL
Mode MIC's of carbenicillin and PA 1,1-Dioxide in combination (Haemophilus influenzae; Table IV, 25 strains): 0.78 µg/mL
Mode MIC's of Cefazolin and PA 1,1-Dioxide in Combination (Haemophilus influenzae; Table V, 25 strains, Cefazolin + PA 1,1-Dioxide in combination): 0.2 µg/mL
inhibition of microbial β-lactamases (microbial β-lactamases): potent inhibitors of microbial β-lactamases
MIC (Staphylococcus aureus [3]): 100 µg/mL (≈ 429 µM)
MIC (Proteus mirabilis): 100 µg/mL (≈ 429 µM)
MIC (Hemophilus influenzae): > 50 µg/mL
MIC (Proteus morgani): 100 µg/mL (≈ 429 µM)
MIC (Streptococcus faecalis): > 200 µg/mL
MIC (Staphylococcus epidermis): 200 µg/mL (≈ 857 µM)
MIC (Escherichia coli): 50 µg/mL (≈ 214 µM)
MIC (Streptococcus pyogenes): 100 µg/mL (≈ 429 µM)
MIC (Salmonella typhimurium): 50 µg/mL (≈ 214 µM)
MIC (Enterobacter aerogenes): 25 µg/mL (≈ 107 µM)
MIC (Providencia): 100 µg/mL (≈ 429 µM)
MIC (Pseudomonas aeruginosa): 200 µg/mL (≈ 857 µM)
MIC (Enterobacter clocae): 100 µg/mL (≈ 429 µM)
MIC (Citrobacter freundii): 50 µg/mL (≈ 214 µM)
MIC (Serratia marcescens): 100 µg/mL (≈ 429 µM)
MIC (Neisseria gonorrhoeae): 0.312 µg/mL (≈ 1.34 µM)
MIC (Pseudomonas putida): > 200 µg/mL
MIC (Pasteurella multocida): 50 µg/mL (≈ 214 µM)
MIC (Klebsiella pneumoniae [4]): 50 µg/mL (≈ 214 µM)
enhancement of antibacterial effectiveness of β-lactam antibiotics [5]: enhances the effectiveness of ampicillin
